Assay results published in PubChem BioAssay (NCI).
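The compound was tested at five concentrations on cells cultured in 96-well plates, with a 48-hour exposure period. Abbreviation: GI50, concentration required for 50% inhibition of growth. TGI denotes the concentration required for complete inhibition of growth.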

Tests used:
Experiment in all cases: inhibition of tumour cell growth, NCI panel, 48 h
[1] = test system: SF-539 CNS
[2] = test system: SK-MEL-2 melanoma
[3] = test system: OVCAR-4 ovarian
[4] = test system: HOP-92 NSCLC
[5] = test system: OVCAR-3 ovarian
[6] = test system: HCT-15 colon
[7] = test system: MDA-N
[8] = test system: HS 578T breast
[9] = test system: NCI/ADR-RES ovarian
[10] = test system: PC-3 prostate

| SMILES | TGI [1] [µM] | TGI [2] [µM] | TGI [3] [µM] | TGI [4] [µM] | TGI [5] [µM] | TGI [6] [µM] | TGI [7] [µM] | TGI [8] [µM] | TGI [9] [µM] | TGI [10] [µM] | GI50 [8] [µM] | GI50 [1] [µM] | GI50 [2] [µM] | GI50 [3] [µM] | GI50 [4] [µM] | GI50 [5] [µM] | GI50 [9] [µM] | GI50 [6] [µM] | GI50 [10] [µM] |
| --- | --- | --- | --- | --- | --- | --- | --- | --- | --- | --- | --- | --- | --- | --- | --- | --- | --- | --- | --- |
| N#CCCN(CCC#N)c1ccc(/C=C(\NC(=O)c2cc([N+](=O)[O-])ccc2Cl)C(=O)Nc2ccccc2)cc1 | > 100 | > 100 | > 100 | > 100 | > 100 | > 100 | – | – | – | – | – | – | – | – | – | – | – | – | – |
| O=C(O)c1cc(=O)c2c(OCC(O)COc3cccc4oc(C(=O)O)cc(=O)c34)cccc2o1 | > 100 | > 79.2 | > 100 | > 93.8 | > 100 | > 100 | > 100 | > 100 | > 100 | > 100 | – | – | – | – | – | – | – | – | – |
| Cc1ccc([N+](=O)[O-])cc1S(=O)(=O)Nc1ccc(C2=NOC(c3cccs3)C2)cc1 (centres undefined) | 56.5 | 28.3 | 32.3 | 57 | 19.7 | 28.5 | 10.4 | 83 | 41.1 | > 100 | – | – | – | – | – | – | – | – | – |
| c1ccc(C(NC2=NCCO2)c2ccccc2)cc1 | > 10 | > 10 | > 10 | – | > 10 | > 10 | > 10 | > 10 | > 10 | > 10 | – | – | – | – | – | – | – | – | – |
| CCOC(=O)C(Cc1cn(C(C)=O)c2ccccc12)P(=O)(OCC)OCC (centres undefined) | – | > 100 | > 100 | > 100 | > 100 | > 100 | > 100 | > 100 | > 100 | > 100 | – | – | – | – | – | – | – | – | – |
| C/C(=N\NC(=S)N(C)C)c1nc2ncccc2[nH]1 | 5.11 | > 100 | 10.6 | 0.928 | – | > 100 | > 100 | 7.85 | 12.6 | > 100 | – | – | – | – | – | – | – | – | – |
| COc1cc2cc(C(=O)Nc3cc4n(n3)-c3ccccc3C4)[nH]c2c(OC)c1OC | 17.8 | 8.39 | 6.16 | 16.6 | 11.8 | 9.61 | 8.52 | 16.4 | 3.86 | 10.4 | – | – | – | – | – | – | – | – | – |
| O=C(Nc1ccc(-n2cc(-c3ccncc3)c(-c3ccc(O)c(Cl)c3)n2)cc1)Nc1ccc(Cl)c(C(F)(F)F)c1 | 12.5 | 4.52 | 29.9 | 5 | 10.9 | 11.8 | – | 13 | 52.7 | 8.74 | 2.43 | 2.58 | 1.97 | 3.97 | 1.82 | 3.23 | 4.1 | 2.95 | 2.49 |
| CCCn1cc2c(SC)nc(SC)nc2n1 | > 100 | > 100 | > 100 | > 100 | – | > 100 | – | – | – | – | – | – | – | – | – | – | – | – | – |
| O=c1/c(=C/c2ccc([N+](=O)[O-])o2)sc2n1[C@@H](c1ccc(Cl)cc1)C=C(c1cc(F)c(Cl)cc1Cl)N=2 | 69 | 17.6 | 30.8 | 28.5 | – | 26.7 | 23.3 | > 100 | > 100 | 32.7 | – | – | – | – | – | – | – | – | – |
| COc1ccc(-c2cc(-c3ccc(O)cc3O)c(C#N)c(=O)[nH]2)cc1 | 34.7 | – | 60 | 31 | 48.6 | > 100 | 32.7 | 48.1 | 46.2 | 35.4 | – | – | – | – | – | – | – | – | – |
| C/C(=N\NC(=S)NCCCCNC(=S)N/N=C(\C)c1ccccn1)c1ccccc1 | 3.86 | 97.3 | > 54.2 | > 57.3 | > 65.2 | > 100 | > 100 | > 100 | 3.86 | > 100 | – | – | – | – | – | – | – | – | – |
| COc1ccc(C(O)(c2ccccc2)c2nccc3ccccc23)cc1 (centres undefined) | – | – | > 100 | – | 6.32 | > 100 | > 100 | > 100 | > 100 | > 100 | – | – | – | – | – | – | – | – | – |
| CCOC(=O)CCSc1nc2ccc(I)cc2c(=O)n1Cc1ccccc1 | > 100 | > 100 | > 77.1 | 53.5 | > 84.5 | > 77.7 | > 86.7 | > 81.9 | > 60.3 | > 100 | – | – | – | – | – | – | – | – | – |
| COc1cc2c(cc1OCCCOS(C)(=O)=O)N=C[C@@H]1CCCN1C2=O | > 100 | > 100 | > 100 | > 100 | > 100 | > 100 | – | > 100 | > 100 | – | – | – | – | 70.4 | – | – | – | – | – |
| Cn1ncc2c(Nc3cccc(Cl)c3)nc(Nc3cccc(Cl)c3)nc21 | 52 | 41.7 | 47.6 | 44.7 | > 66.6 | 30.9 | – | 43.9 | 37.3 | 36 | – | – | – | – | – | – | – | – | – |
| O=C(O)CCc1nc2ccccc2[nH]1 | > 100 | > 100 | > 100 | > 100 | > 100 | > 100 | > 100 | > 100 | > 100 | > 100 | – | – | – | – | – | – | – | – | – |
